The values that follow come from patent publication US20250051277A1, “DELIVERY OF THERAPEUTIC ALKALOID COMPOUNDS” (Sensorium Therapeutics, Inc., priority 2021, published 2025).

The format of data set [1] is physicochemical. Conditions: SGF with pepsin, pH 1.5, 37° C.; for Condition 1 Conversion (%): 0.5 mM; for Condition 1 Conversion (%), first value of pair x/y: first of two values; for Condition 1 Conversion (%), second value of pair x/y: second of two values.
The format of data set [2] is physicochemical. Conditions: DI water, 25° C., 0.5 mM.

The structures appear in SMILES notation. Like-named read-outs stand apart in the source and are kept apart here.

For the compound `COc1ccc([C@]23CCN(C)[C@H]2CC2(CC3)OCC(C(=O)O)O2)cc1OC` (stereo partly drawn) [Compound 214, (3aS,7aS)-3a-(3,4-dimethoxyphenyl)-1-methyloctahydrospiro[indole-6,2′-[1,3]dioxolane]-4′-carboxylic acid], the “Condition 1 Conversion (%)” value in data set [1] (time 1 min), in data set [1] (time 5 min), in data set [1] (time 30 min), in data set [1] (time 1 h), in data set [1] (time 4 h) and in data set [1] (time 24 h) was 0% throughout. For the same compound, the “Condition 2 Conversion (%)” value in data set [2] (time 1 min), in data set [2] (time 5 min), in data set [2] (time 30 min), in data set [2] (time 1 h), in data set [2] (time 4 h) and in data set [2] (time 24 h) was 0% in each case.
As to `COc1ccc([C@@]23CCC(=NNc4ccc5ccccc5n4)C[C@@H]2N(C)CC3)cc1OC` [Compound 366, N-[[(3aS,7aS)-3a-(3,4-dimethoxyphenyl)-1-methyl-2,3,4,5,7,7a-hexahydroindol-6-ylidene]amino]quinolin-2-amine], the “Condition 1 Conversion (%)” value is 0% in data set [1] (time 1 min); 8.9% in data set [1] (time 5 min); 47.1% in data set [1] (time 30 min); 77.4% in data set [1] (time 1 h); 94.1% in data set [1] (time 4 h); 100% in data set [1] (time 24 h). In addition, the “Condition 2 Conversion (%)” value in data set [2] (time 1 min) worked out at 0%; in data set [2] (time 5 min), 0%; in data set [2] (time 30 min), 10.11%; in data set [2] (time 1 h) it was 11.33%; in data set [2] (time 4 h) it was 12.6%; in data set [2] (time 24 h), 17.4%.
For `COc1ccc([C@]23CCN(C)[C@H]2CC(OC)(OC)CC3)cc1OC` (stereo in doubt) [Compound 190, 3a-(3,4-dimethoxyphenyl)-6,6-dimethoxy-1-methyl-2,3,4,5,7,7a-hexahydroindole], the “Condition 1 Conversion (%)” value in data set [1] (time 1 min) worked out at 0%; in data set [1] (time 5 min), 8.30%; in data set [1] (time 30 min), 82.97%; in data set [1] (time 1 h), 100%; in data set [1] (time 4 h), 100%; in data set [1] (time 24 h), 100%. In addition, the “Condition 2 Conversion (%)” value in data set [2] (time 1 min), in data set [2] (time 5 min), in data set [2] (time 30 min), in data set [2] (time 1 h), in data set [2] (time 4 h) and in data set [2] (time 24 h) was 0% in each case.
For `COc1ccc([C@@]23CCC(=NNc4ncccc4C)C[C@@H]2N(C)CC3)cc1OC` [Compound 364, (3aS,7aS)-3a-(3,4-dimethoxyphenyl)-1-methyl-6-(2-(3-methylpyridin-2-yl)hydrazineylidene)octahydro-1H-indole], the “Condition 1 Conversion (%)” value in data set [1] (time 1 min) worked out at 10%; in data set [1] (time 5 min), 100%; in data set [1] (time 30 min), 14.91%; in data set [1] (time 1 h), 16.09%; in data set [1] (time 4 h), 77.07%; in data set [1] (time 24 h) it was 90.5%. Besides, the “Condition 2 Conversion (%)” value in data set [2] (time 1 min) is on record as 0%; in data set [2] (time 5 min) it was 0%; in data set [2] (time 30 min), 0%; in data set [2] (time 1 h), 35.78%; in data set [2] (time 4 h), 47%; in data set [2] (time 24 h), 78.89%.
As for `COc1ccc([C@@]23CCC(=NNCc4cccc(C)c4)C[C@@H]2N(C)CC3)cc1OC` [Compound 367, N-[[(3aS,7aS)-3a-(3,4-dimethoxyphenyl)-1-methyl-2,3,4,5,7,7a-hexahydroindol-6-ylidene]amino]-1-(m-tolyl)methanamine], the “Condition 1 Conversion (%)” value in data set [1] (time 1 min), in data set [1] (time 5 min), in data set [1] (time 30 min), in data set [1] (time 1 h), in data set [1] (time 4 h) and in data set [1] (time 24 h) was 100% throughout. Moreover, the “Condition 2 Conversion (%)” value is reported as 5% in data set [2] (time 1 min); 8.3% in data set [2] (time 5 min); 11.5% in data set [2] (time 30 min); 11.92% in data set [2] (time 1 h); 13.32% in data set [2] (time 4 h); 20% in data set [2] (time 24 h).
In the case of `COc1ccc([C@@]23CC/C(=N\OC(C)(C)OC)C[C@@H]2N(C)CC3)cc1OC` [Compound 204, (E,3aS,7aS)-3a-(3,4-dimethoxyphenyl)-N-(1-methoxy-1-methyl-ethoxy)-1-methyl-2,3,4,5,7,7a-hexahydroindol-6-imine], the “Condition 1 Conversion (%), first value of pair x/y” value amounted to 100% in data set [1] (time 1 min); 100% in data set [1] (time 5 min); 0% in data set [1] (time 30 min); 0% in data set [1] (time 1 h); 0% in data set [1] (time 4 h); 0% in data set [1] (time 24 h). Besides, the “Condition 1 Conversion (%), second value of pair x/y” value in data set [1] (time 1 min) is 0%; in data set [1] (time 5 min) it was 0%; in data set [1] (time 30 min) it was 100%; in data set [1] (time 1 h), 100%; in data set [1] (time 4 h) it was 100%; in data set [1] (time 24 h), 100%. Also, the “Condition 2 Conversion (%)” value in data set [2] (time 1 min), in data set [2] (time 5 min), in data set [2] (time 30 min), in data set [2] (time 1 h), in data set [2] (time 4 h) and in data set [2] (time 24 h) was 0% throughout.
Take `COc1ccc([C@@]23CC/C(=N\NC(=O)Nc4ccccc4Cl)C[C@@H]2N(C)CC3)cc1OC` [Compound 249, 1-[(E)-[(3aS,7aS)-3a-(3,4-dimethoxyphenyl)-1-methyl-2,3,4,5,7,7a-hexahydroindol-6-ylidene]amino]-3-(2-chlorophenyl)urea]: the “Condition 1 Conversion (%)” value in data set [1] (time 1 min) is 0%; in data set [1] (time 5 min), 70.48%; in data set [1] (time 30 min), 96.4%; in data set [1] (time 1 h) it was 96.5%; in data set [1] (time 4 h), 96.72%; in data set [1] (time 24 h), 96.8%. For the same compound, the “Condition 2 Conversion (%)” value in data set [2] (time 1 min) is given as 0%; in data set [2] (time 5 min), 0%; in data set [2] (time 30 min), 0%; in data set [2] (time 1 h), 0%; in data set [2] (time 4 h), 9.23%; in data set [2] (time 24 h), 24.65%.
Take `COc1ccc([C@@]23CCC(=NNC(=O)c4ccc(F)cc4)C[C@@H]2N(C)CC3)cc1OC` [Compound 220, N-[[(3aS)-3a-(3,4-dimethoxyphenyl)-1-methyl-2,3,4,5,7,7a-hexahydroindol-6-ylidene]amino]-4-fluoro-benzamide]: the “Condition 1 Conversion (%)” value in data set [1] (time 1 min) is given as 86.72%; in data set [1] (time 5 min), 100%; in data set [1] (time 30 min) it was 100%; in data set [1] (time 1 h) it was 100%; in data set [1] (time 4 h) it was 100%; in data set [1] (time 24 h), 100%. The “Condition 2 Conversion (%)” value in data set [2] (time 1 min) was 20.02%; in data set [2] (time 5 min), 21.53%; in data set [2] (time 30 min) it was 22.27%; in data set [2] (time 1 h), 55.36%; in data set [2] (time 4 h) it was 88.25%; in data set [2] (time 24 h) it was 89.93%.
Regarding `COc1ccc([C@@]23CCC(=NNCc4cccnc4)C[C@@H]2N(C)CC3)cc1OC` [Compound 370, N-[[(3aS,7aS)-3a-(3,4-dimethoxyphenyl)-1-methyl-2,3,4,5,7,7a-hexahydroindol-6-ylidene]amino]-1-(3-pyridyl)methanamine], the “Condition 1 Conversion (%)” value is 20% in data set [1] (time 1 min); 40% in data set [1] (time 5 min); 100% in data set [1] (time 30 min); 100% in data set [1] (time 1 h); 100% in data set [1] (time 4 h); 100% in data set [1] (time 24 h). Besides, the “Condition 2 Conversion (%)” value in data set [2] (time 1 min) is given as 0%; in data set [2] (time 5 min), 0%; in data set [2] (time 30 min), 0%; in data set [2] (time 1 h) it was 10%; in data set [2] (time 4 h) it was 30%; in data set [2] (time 24 h), 70%.
